Experimental data published in ChEMBL document CHEMBL1201862, “PubChem BioAssay data set” (2004).
Activity calls are given as the source filed them.

Key:
[1] = target: T1, Alkaline phosphatase, tissue-nonspecific isozyme (Homo sapiens, UniProt P05186); assay: inhibition of tissue-nonspecific alkaline phosphatase – biochemical, dose response (AID 488882); format: functional
T1 sequence (P05186 whole entry): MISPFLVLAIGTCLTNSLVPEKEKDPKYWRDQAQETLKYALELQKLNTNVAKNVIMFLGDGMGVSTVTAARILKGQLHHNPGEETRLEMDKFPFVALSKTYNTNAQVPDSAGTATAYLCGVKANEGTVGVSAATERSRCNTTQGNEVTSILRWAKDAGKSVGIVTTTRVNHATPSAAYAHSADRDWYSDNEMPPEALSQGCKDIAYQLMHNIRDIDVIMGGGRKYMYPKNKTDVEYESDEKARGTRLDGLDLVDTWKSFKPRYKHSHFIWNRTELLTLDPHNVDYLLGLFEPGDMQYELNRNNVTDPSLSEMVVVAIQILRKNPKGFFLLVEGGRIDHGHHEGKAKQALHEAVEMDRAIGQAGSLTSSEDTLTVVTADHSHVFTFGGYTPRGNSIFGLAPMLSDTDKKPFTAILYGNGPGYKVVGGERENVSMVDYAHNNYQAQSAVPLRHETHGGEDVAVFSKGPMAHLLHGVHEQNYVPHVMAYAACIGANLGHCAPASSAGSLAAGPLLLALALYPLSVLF

[2] = target: Dual specificity tyrosine-phosphorylation-regulated kinase 1A (Rattus norvegicus, UniProt Q63470); format: biochemical, Homo sapiens
[3] = target: T2, Intestinal-type alkaline phosphatase (Homo sapiens, UniProt P09923); assay: human IAP inhibitors, dose response, biochemical, luminescent, uHTS hits, set 2 (AID 488793); format: functional
T2 sequence (P09923 whole entry): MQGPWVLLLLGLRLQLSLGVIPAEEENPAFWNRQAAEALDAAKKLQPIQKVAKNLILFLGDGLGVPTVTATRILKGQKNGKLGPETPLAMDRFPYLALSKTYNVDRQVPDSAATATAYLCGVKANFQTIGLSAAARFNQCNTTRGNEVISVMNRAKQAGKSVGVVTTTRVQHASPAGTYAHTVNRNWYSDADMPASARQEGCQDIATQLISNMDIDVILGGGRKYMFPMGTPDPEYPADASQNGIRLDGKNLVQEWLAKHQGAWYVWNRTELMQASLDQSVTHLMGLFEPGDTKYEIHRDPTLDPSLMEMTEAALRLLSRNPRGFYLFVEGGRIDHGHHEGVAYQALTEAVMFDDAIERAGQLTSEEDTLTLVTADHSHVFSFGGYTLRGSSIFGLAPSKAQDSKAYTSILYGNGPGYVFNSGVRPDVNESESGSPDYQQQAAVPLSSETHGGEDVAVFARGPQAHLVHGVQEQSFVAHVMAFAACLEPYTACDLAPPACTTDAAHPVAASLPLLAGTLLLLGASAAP

[4] = target: T3, Rac GTPase-activating protein 1 (Homo sapiens, UniProt Q9H0H5); assay: MgcRacGAP GTPase-activating activity inhibitors, confirmation, biochemical, ADP Hunter fluorescence, primary and confirmatory (AID 624330); format: functional
T3 sequence (Q9H0H5 whole entry): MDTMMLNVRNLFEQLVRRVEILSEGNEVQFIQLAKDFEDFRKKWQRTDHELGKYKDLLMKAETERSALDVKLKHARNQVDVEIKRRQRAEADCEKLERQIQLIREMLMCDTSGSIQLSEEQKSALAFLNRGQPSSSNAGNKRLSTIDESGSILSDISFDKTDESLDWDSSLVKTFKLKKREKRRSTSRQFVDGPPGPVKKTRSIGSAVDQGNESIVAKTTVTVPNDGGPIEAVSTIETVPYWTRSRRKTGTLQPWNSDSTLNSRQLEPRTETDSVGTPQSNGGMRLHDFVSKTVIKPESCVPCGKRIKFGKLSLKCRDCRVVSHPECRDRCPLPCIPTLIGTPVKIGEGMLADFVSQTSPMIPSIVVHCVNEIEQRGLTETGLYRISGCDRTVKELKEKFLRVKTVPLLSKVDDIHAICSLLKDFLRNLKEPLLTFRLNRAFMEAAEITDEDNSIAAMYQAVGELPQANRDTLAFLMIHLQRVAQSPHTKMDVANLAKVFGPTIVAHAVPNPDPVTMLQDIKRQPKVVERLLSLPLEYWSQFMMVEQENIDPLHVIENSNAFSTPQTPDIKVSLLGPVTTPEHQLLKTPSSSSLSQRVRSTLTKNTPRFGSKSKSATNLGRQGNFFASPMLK

[5] = target: Intestinal-type alkaline phosphatase (Mus musculus, UniProt P24822); assay: PubChem AID 488874; format: functional
Chain of Intestinal-type alkaline phosphatase (Mus musculus, UniProt P24822) (P24822 whole entry): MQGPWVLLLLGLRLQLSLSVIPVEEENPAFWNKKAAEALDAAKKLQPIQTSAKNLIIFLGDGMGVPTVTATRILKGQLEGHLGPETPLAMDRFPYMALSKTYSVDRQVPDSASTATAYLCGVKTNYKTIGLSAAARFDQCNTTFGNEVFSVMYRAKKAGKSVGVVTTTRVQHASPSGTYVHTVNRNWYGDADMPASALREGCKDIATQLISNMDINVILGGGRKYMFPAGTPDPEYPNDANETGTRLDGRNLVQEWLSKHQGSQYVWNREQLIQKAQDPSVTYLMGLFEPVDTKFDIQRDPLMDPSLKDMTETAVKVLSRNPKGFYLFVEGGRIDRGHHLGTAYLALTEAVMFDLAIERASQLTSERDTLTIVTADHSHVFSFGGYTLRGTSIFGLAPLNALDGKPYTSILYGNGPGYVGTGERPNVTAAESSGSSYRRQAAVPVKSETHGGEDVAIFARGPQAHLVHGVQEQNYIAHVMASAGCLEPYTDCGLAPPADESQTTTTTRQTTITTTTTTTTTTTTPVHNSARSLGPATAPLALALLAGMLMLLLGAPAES

[6] = target: T2, Intestinal-type alkaline phosphatase; assay: Dose Response confirmation of uHTS hits from a small molecule inhibitors of human intestinal alkaline phosphatase via a luminescent assay. [Related pubchem assays (depositor defined):AID2544, AID2574]; format: functional
[7] = target: T4, Microphthalmia-associated transcription factor (Homo sapiens, UniProt O75030); assay: TRPM1 promoter luciferase signal decrease, dose response, MITF inhibitor project, cell-based, SK-MEL-5, cherry-picked, set 3 (AID 493073); format: functional
T4 sequence (O75030 whole entry): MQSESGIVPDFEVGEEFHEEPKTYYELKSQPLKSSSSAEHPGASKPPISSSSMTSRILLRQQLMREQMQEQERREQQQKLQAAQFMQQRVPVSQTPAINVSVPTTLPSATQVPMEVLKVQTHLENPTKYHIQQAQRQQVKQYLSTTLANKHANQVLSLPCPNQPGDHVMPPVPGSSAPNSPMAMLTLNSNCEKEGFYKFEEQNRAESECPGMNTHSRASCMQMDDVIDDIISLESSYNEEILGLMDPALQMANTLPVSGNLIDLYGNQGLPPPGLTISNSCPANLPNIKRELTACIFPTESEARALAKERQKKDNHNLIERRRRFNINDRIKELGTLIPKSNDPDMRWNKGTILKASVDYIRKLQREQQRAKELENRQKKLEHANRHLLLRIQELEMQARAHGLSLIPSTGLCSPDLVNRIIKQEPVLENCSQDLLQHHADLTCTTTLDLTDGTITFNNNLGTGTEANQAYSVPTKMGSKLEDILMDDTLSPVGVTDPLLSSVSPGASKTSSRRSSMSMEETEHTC

[8] = target: T5, Endoribonuclease toxin MazF (Escherichia coli K-12, UniProt P0AE70); assay: fluorescent RNA oligo signal without MazF, dose response, counter-screen for MazEF activator project, biochemical, fluorescence, single-stranded RNase substrate (AID 588502); format: functional
T5 sequence (P0AE70 whole entry): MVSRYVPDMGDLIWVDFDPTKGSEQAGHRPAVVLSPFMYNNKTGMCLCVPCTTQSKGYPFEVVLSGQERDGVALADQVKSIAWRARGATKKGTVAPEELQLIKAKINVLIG

[9] = target: T5, Endoribonuclease toxin MazF; assay: MazF toxin RNase activators, dose response, biochemical, fluorescence, single-stranded RNA substrate, uHTS hits (AID 588481); format: functional
[10] = target: T6, Mu-type opioid receptor (Homo sapiens, UniProt P35372); assay: MOR agonists by imaging, SAR follow-up, image-based (AID 2352); format: functional
T6 sequence (P35372 whole entry): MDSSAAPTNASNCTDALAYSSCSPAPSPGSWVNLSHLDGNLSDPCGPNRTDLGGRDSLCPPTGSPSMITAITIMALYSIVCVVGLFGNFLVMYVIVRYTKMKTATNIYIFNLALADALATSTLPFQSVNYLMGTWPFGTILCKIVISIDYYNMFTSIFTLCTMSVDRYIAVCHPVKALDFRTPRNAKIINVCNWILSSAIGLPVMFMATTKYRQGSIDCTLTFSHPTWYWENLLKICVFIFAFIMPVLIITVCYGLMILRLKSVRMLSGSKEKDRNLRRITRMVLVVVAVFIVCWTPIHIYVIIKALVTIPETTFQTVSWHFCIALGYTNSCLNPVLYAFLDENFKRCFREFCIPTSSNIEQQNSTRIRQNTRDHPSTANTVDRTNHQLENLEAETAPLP

[11] = target: T7, Delta-type opioid receptor (Homo sapiens, UniProt P41143); assay: DOR antagonists, SAR follow-up, image-based (AID 2357); format: functional
T7 sequence (P41143 whole entry): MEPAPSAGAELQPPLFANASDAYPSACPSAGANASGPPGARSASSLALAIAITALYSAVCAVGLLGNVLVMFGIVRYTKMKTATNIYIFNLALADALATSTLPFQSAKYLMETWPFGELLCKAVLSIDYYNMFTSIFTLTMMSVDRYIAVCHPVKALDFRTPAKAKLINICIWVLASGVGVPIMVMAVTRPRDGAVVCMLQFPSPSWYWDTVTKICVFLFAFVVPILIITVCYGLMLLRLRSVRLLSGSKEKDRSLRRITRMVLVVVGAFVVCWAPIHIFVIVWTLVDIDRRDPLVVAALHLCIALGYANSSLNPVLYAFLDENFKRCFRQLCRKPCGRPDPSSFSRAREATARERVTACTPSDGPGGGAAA

[12] = target: T8, Kappa-type opioid receptor (Homo sapiens, UniProt P41145); assay: kappa opioid receptor blockers, cell-based, luminescence, beta-arrestin, SAR follow-up (AID 2285); format: functional
T8 sequence (P41145 whole entry): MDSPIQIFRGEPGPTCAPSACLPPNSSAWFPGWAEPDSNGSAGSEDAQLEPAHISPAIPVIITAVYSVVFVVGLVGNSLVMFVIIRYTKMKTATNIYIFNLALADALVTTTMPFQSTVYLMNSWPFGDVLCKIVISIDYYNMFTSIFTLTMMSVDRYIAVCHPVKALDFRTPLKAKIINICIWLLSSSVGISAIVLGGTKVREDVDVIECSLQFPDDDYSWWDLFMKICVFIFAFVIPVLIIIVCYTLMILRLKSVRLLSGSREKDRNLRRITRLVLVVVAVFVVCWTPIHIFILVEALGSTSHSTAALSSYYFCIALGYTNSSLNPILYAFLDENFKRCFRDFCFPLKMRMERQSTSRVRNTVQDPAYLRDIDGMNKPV

[13] = target: T7, Delta-type opioid receptor; assay: DOR agonists, SAR follow-up, image-based (AID 2370); format: functional
[14] = target: T6, Mu-type opioid receptor; assay: MOR antagonists, SAR follow-up, image-based (AID 2420); format: functional;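 also: compounds added before stimulation of receptor with agonist DAMGO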
[15] = target: T8, Kappa-type opioid receptor; assay: KOR antagonists by imaging, SAR follow-up, image-based (AID 2348); format: functional
[16] = target: T8, Kappa-type opioid receptor; assay: KOR agonist analogs, imaging readout, SAR follow-up, image-based (AID 2359); format: functional

SMILES	IC50 [1]	AC50 [2]	IC50 [3]	IC50 [4]	IC50 [5]	IC50 [6]	AC50 [7]	EC50 [8]	EC50 [9]	EC50 [10]	IC50 [11]	IC50 [12]	EC50 [13]	IC50 [14]	IC50 [15]	EC50 [16]
COc1ccc(C=C2C(=O)c3ccccc3C2=O)cc1O	15.6 µM (active)	1.7 µM (active)	15.6 µM (active)	46.8 µM (active)	15 µM (active)	12.7 µM (inactive)										
CC(C)=CCc1c(O)ccc2c1OC(c1ccc(O)c(O)c1)CC2=O (stereo unspecified)	88.8 µM (active)	3.68 µM (active)	1.97 µM (active)		11.5 µM (active)	6.64 µM (active)	11.7 µM (active)	> 99 µM (inactive)	> 99 µM (inactive)							
CC(=O)Nc1ccc(S(=O)(=O)NCc2ccc(C(=O)NCCN(C)Cc3ccccc3)cc2)cc1										> 32 µM (inactive)	> 32 µM (inactive)	> 10 µM (inactive)	> 32 µM (inactive)	> 32 µM (inactive)	> 32 µM (inactive)	> 32 µM (inactive)
